By logP is commonly meant a log measure of how a compound divides between an organic and an aqueous phase. Higher therefore signals a more lipophilic compound. As usually defined, the solubility is the dissolved amount per volume that the medium holds.

Values after ≈ are worked out from the molar mass of the structure shown. Where a SMILES comes first, the peptide text is derived from it.

Details in the first series: not given
On to `CCCN(CCC)C1COc2ccc(O)cc2C1` (stereo unspecified), for which the logP came to 3.19.

Compound `CC1(C)C=C(C(=O)NCCCN2C(=O)c3ccccc3C2=O)C(C)(C)N1` showed a logP of 1.58.

`Cc1ccc(C)c2c(C)cccc12` registered a logP of 4.9.

`CCNc1ncc(-c2ccncc2)cc1C#N` returned a logP of 2.33.

The compound `CCCC(=O)Oc1c(Br)cc(C#N)cc1Br` showed a logP of 3.94.

In the case of `CCN1CCCC1=O`, the logP is -0.04.

The compound `COC(=O)Nc1cccc(F)c1` returned a logP of 2.21.

As for `CCCN(CCOc1c(Cl)cc(Cl)cc1Cl)C(=O)n1ccnc1`, the lipophilicity (logP) is 4.1.

Turning to `Cc1c(CNc2ccccc2)cnc2nc(N)nc(N)c12`, the logP amounted to 2.02.

`Cc1cc(Br)cc(C)c1C#[N+][O-]` registered a lipophilicity (logP) of 3.63.

`CSc1nc(C(Cl)(Cl)Cl)nc(C(Cl)(Cl)Cl)n1` gave a logP of 4.42.

In turn, `CC(C)(O)C(=O)Nc1ccc([N+](=O)[O-])c(C(F)(F)F)c1` displayed a log partition coefficient (logP) of 2.7.

`CCNC(=O)CNC(=O)c1ccccc1`: the log partition coefficient (logP) turned out to be 0.58.

Compound `CC[n+]1c(-c2ccccc2)c2cc(N)ccc2c2ccc(N)cc21.[Br-]` came in with a solubility of 50.7 mM.

`CCCN1CCOC2c3cc(O)ccc3CCC21` (stereo unspecified) registered a logP of 2.44.

Take `C=COCCn1cnc2c(=N)n(C)c(=O)[nH]c21`: the lipophilicity (logP) was -0.24.

As to `NC(=O)CC[C@H](NS(=O)(=O)c1ccccc1)C(=O)O`, the logP stood at 0.33.

With `O=C(OCn1ncc2c(=O)[nH]cnc21)c1ccccc1`, the logP is 1.5.

On to `Cc1cccc(O[Si]23OCCN(CCO2)CCO3)c1`, for which the logP came out at 0.15.

The compound `CCOC(=O)c1ccc(OCC)cc1` returned a logP of 3.6.

Compound `CNc1nc(C)nc(C(Cl)(Cl)Cl)n1` displayed a logP of 2.43.

Compound `Nc1ccc(S(=O)(=O)O)cc1` had a logP of -2.16.

`O=[N+]([O-])c1nc[nH]c1I` displayed a logP of 0.28.

`CC(=O)N[C@@H](CC(C)C)C(=O)N[C@H](C(=O)N[C@@H](CC(C)C)C(N)=O)[C@@H](C)O` (Ac-Leu-Thr-Leu-NH2) registered a logP of 0.24.

Consider `CC(=O)OC1CCC(C(C)(C)C)CC1` (stereo unspecified), for which the logP worked out at 4.8.

As for `CN(C)CCCN1c2cc(O)ccc2Sc2ccc(Cl)cc21`, the logP was determined as 4.63.

As to `NC(=O)CCCN=C(c1ccc(Cl)cc1)c1cc(F)ccc1O`, the logP turned out to be 3.06.

`CC(C)COCC(C)C`: the logP came out at 2.78.

`C[C@H](CCC(=O)NCC(=O)O)[C@H]1CC[C@H]2[C@@H]3[C@H](O)[C@H](O)[C@@H]4C[C@H](O)CC[C@]4(C)[C@H]3CC[C@]12C` returned a log partition coefficient (logP) of 1.9.

The compound `CC(=O)OCCN(CCC#N)c1ccc(N=Nc2nc3ccc([N+](=O)[O-])cc3s2)cc1` had a logP of 4.08 and a solubility of 0.00157 mM (≈ 0.69 µg/mL).

Turning to `C[C@H](CCC(=O)O)[C@H]1CC[C@H]2[C@@H]3[C@H](O)C[C@@H]4C[C@H](O)CC[C@]4(C)[C@H]3C[C@H](O)[C@]12C`, the logP came out at 2.02.

Compound `O=P1(N(CCCl)CCCl)NCCCO1` (stereo unspecified) displayed a solubility of 153 mM (≈ 40000 µg/mL).

For `COc1ccc(C(=O)CCC(=O)O)cc1`, the log partition coefficient (logP) is 1.38.

In turn, `CC(=O)Oc1cc(C(C)C)c(OCCN(C)C)cc1C` registered a logP of 3.17.

As to `CC(C)(C#N)/N=N/C(C)(C)C#N`, the logP stood at 1.1.

Turning to `COP(=S)(OC)Oc1ccc(C#N)cc1`, the logP is 2.71.

`CN1C(=O)C(O)CC1c1cccnc1` (stereo unspecified) registered a logP of -1.45.

`Cc1cc(C)cc(NCc2cnc3nc(N)nc(N)c3c2C)c1` came in with a logP of 2.11.

Turning to `OCC1CO1` (stereo unspecified), the lipophilicity (logP) was -0.95.

`Cc1cccc(C)c1C#[N+][O-]` gave a logP of 2.74.

Consider `Nc1ccc(C(=O)NCC(=O)O)cc1`, for which the logP is -0.89.

`CCC(=O)CC`: the solubility amounted to 558 mM (≈ 48100 µg/mL).

As to `Cc1ccccc1OCCN(C)C`, the logP worked out at 2.23.

`OCc1cc(Br)cc(Br)c1O` came in with a logP of 2.72.

With `CCCCCCCCNC(=O)n1cc(F)c(=O)[nH]c1=O`, the logP came to 3.9.

Regarding `Cc1ccc(OP(=O)(Oc2ccc(C)cc2)Oc2ccc(C)cc2)cc1`, the solubility is 0.000814 mM (≈ 0.3 µg/mL).

`COc1ccc(CNC(=O)C(=O)c2c[nH]c3ccc([N+](=O)[O-])cc23)cc1` showed a logP of 2.17.

For the compound `OC(CN1C2CCOCC21)Cn1ccnc1` (stereo unspecified), the logP came to 0.07.

Compound `O=C1CCC2CCC(=O)N12` showed a logP of -1.11.

For `Nc1ncnc2c1ncn2C1OC2COP(=O)(OCc3ccccc3)OC2C1O` (stereo unspecified), the logP was 1.15.

In turn, `CC1=CCC2CC1C2(C)C` (stereo unspecified) displayed a log partition coefficient (logP) of 4.83.

The compound `NS(=O)(=O)c1cc2c(cc1C(F)(F)F)NC(Cc1ccccc1)NS2(=O)=O` (stereo unspecified) registered a logP of 1.89.

As to `Oc1cccc(-c2ccccc2O)c1`, the logP stood at 4.06.

For `Cc1cccc([N+](=O)[O-])c1C`, the logP is 2.83.

`Cc1ccc(S(=O)(=O)N(C)C(=O)c2ccccc2)cc1` gave a logP of 2.95.

`CC1=CC(=NNC(=N)N)C=CC1=NNC(N)=S` returned a logP of 1.66.

In turn, `CCOC(=O)C1=C(C)NC(C)=C(C(=O)OC)C1c1cccc([N+](=O)[O-])c1` (stereo unspecified) displayed a logP of 2.88.

Consider `Clc1ccc(O[Si]23OCCN(CCO2)CCO3)cc1`, for which the log partition coefficient (logP) was found to be 0.6.

Consider `CCOC1OC2OC3(C)CC(OC4OC(C(=O)O)C(O)C(O)C4O)C4C(C)CCC(C1C)C24OO3` (stereo unspecified), for which the logP turned out to be 1.73.

As to `Oc1cccc2ncccc12`, the lipophilicity (logP) was 1.85.

For the compound `OCCOc1cccc2ccccc12`, the logP stood at 2.5.

The same series, now with this note: 20 °C.
As to `CNC(=N)N`, the solubility is 24.4 mM (≈ 1780 µg/mL).

The series is the same for the next values; noted with them: 23.0 °C.
As to `CC(=O)C(C)O` (stereo unspecified), the log10 OH rate constant (cm³/molecule/s) was -11.

`CCC(=O)CO` registered a log10 OH rate constant (cm³/molecule/s) of -11.1.

The same series, now with this note: 24 °C.
Turning to `CC1CN(N=O)CC(C)O1` (stereo unspecified), the solubility was determined as 860 mM (≈ 124000 µg/mL).

Still in this series, the particulars now being: 24.0 °C.
For `Clc1ccccc1-c1ccccc1Cl`, the log10 OH rate constant (cm³/molecule/s) is -11.7.

Staying with this series, now noted: 25 °C.
Take `CC(F)(F)Cl`: the solubility was determined as 13.9 mM (≈ 1400 µg/mL).

Compound `COCCc1ccc(OCC(O)CNC(C)C)cc1` (stereo unspecified) showed a solubility of 63.2 mM (≈ 16900 µg/mL).

Compound `NC(N)=O` had a solubility of 9070 mM (≈ 545000 µg/mL).

Take `FCCl`: the solubility is 151 mM (≈ 10400 µg/mL). Compared with the last compound, the solubility is about 60-fold lower.

`Cc1ccccc1C` yielded a solubility of 1.68 mM (≈ 178 µg/mL). Against the preceding compound, the solubility is about 90-fold lower.

Compound `Clc1ccccc1-c1ccccc1Cl` had a solubility of 0.00829 mM (≈ 1.85 µg/mL). This solubility is about 200-fold lower than that of the compound before.

In the case of `C[C@]12C[C@H](O)[C@H]3[C@@H](CCC4=CC(=O)CC[C@@]43C)[C@@H]1CC[C@@H]2C(=O)CO`, the solubility worked out at 0.574 mM (≈ 199 µg/mL).

The compound `COCCOC(=O)c1ccccc1C(=O)OCCOC` yielded a solubility of 30.1 mM (≈ 8500 µg/mL).

The compound `CN(C)c1ccc(N=NS(=O)(=O)[O-])cc1.[Na+]` registered a solubility of 79.6 mM. This solubility is about 2.6-fold higher than that of the compound before.

In turn, `CCCCC(CC)CO` (stereo unspecified) had a solubility of 6.02 mM (≈ 785 µg/mL).

For the compound `CC(C)(C#N)/N=N/C(C)(C)C#N`, the solubility turned out to be 2.13 mM (≈ 350 µg/mL).

Regarding `CN(C)c1ccc(N=Nc2ccc(N)cc2)cc1`, the solubility was determined as 0.0255 mM (≈ 6.12 µg/mL).

`CCCCCCCCCl` displayed a solubility of 0.0329 mM (≈ 4.89 µg/mL). The solubility values of the last two compounds are within 1.5-fold of each other.

Regarding `ClCC(Cl)CCl`, the solubility turned out to be 11.9 mM (≈ 1750 µg/mL).

Take `CCCC(C)Cl` (stereo unspecified): the solubility is 3.2 mM (≈ 341 µg/mL). This solubility is about 3.7-fold lower than that of the compound before.

The compound `FC(Cl)C(F)(F)F` (stereo unspecified) showed a solubility of 11 mM (≈ 1500 µg/mL). Against the preceding compound, the solubility is about 3.4-fold higher.

Compound `O=C(O)C(Br)(Br)Br` returned a solubility of 674 mM (≈ 200000 µg/mL). Compared with the last compound, the solubility is about 61-fold higher.

Staying with this series, now noted: 25.0 °C.
As to `Cc1ccccc1C`, the log10 OH rate constant (cm³/molecule/s) is -10.9.

In turn, `CCOCCOCC` returned a log10 OH rate constant (cm³/molecule/s) of -10.2.

Turning to `FC(F)(F)COCC(F)(F)F`, the log10 OH rate constant (cm³/molecule/s) is -12.8.

In turn, `CC1(C)C2CCC(=O)C1C2` (stereo unspecified) showed a log10 OH rate constant (cm³/molecule/s) of -10.8.

For the compound `CSC(=O)N(C)C`, the log10 OH rate constant (cm³/molecule/s) is -10.9.

Regarding `CCSC(=O)N(CC)C1CCCCC1`, the log10 OH rate constant (cm³/molecule/s) was -10.5.

The compound `O=C/C=C/C=C/C=O` came in with a log10 OH rate constant (cm³/molecule/s) of -10.

The values are drawn from the OPERA property sets (Mansouri et al. 2018).
